Assay [1] has as its target T1, rat steroid 5α-reductase (Rattus norvegicus, UniProt P24008).
T1 sequence (P24008 5-259): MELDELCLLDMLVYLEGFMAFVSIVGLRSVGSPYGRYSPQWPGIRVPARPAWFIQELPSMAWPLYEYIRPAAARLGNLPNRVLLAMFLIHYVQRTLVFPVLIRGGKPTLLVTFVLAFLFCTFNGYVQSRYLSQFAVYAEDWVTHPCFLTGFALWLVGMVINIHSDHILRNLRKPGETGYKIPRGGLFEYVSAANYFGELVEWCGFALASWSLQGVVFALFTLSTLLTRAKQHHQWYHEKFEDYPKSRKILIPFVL
Briefly: steroid 5α-reductase activity/inhibition in vitro, homogenates of COS cells expressing rat cDNA (Table III). Conditions: apparent Ki, rat enzyme; two [14C]testosterone concentrations; Dixon plots. An excerpt:
(§1) Expression Vector Construction. A rat steroid 5α-reductase cDNA corresponding to nucleotides 1-1962 (see Example 1) was ligated into the pCMV4 expression vector (Andersson et al., 1989b). A human cDNA corresponding to nucleotides 1 to 842 of FIG. 7 was initially ligated into pCMV4. […] After amplification, the product was ligated into pCMV4.
(§2) Expression of Steroid 5α-Reductase 1 cDNAs in COS Cells. Simian COS-M6 cells were transfected as described by Andersson et al. (1989b). The assay of steroid 5α-reductase activity in intact cells was carried out as described in Example 1 except that [^14 C]-labeled steroid dissolved in ethanol were added to the transfected cell medium and subsequent organic extractions were carried out with dichloromethane. TLC and liquid scintillation counting were performed as described in Example 1.
(§3) To assay steroid 5α-reductase activity in vitro, cells were harvested 48 hours after transfection, washed once with phosphate buffered saline and either frozen in liquid N2 or homogenized directly with a Polytron in 10 mM potassium phosphate (pH 7.4), 150 mM KCl and 1 mM EDTA, at a protein concentration of 2 mg/ml. A typical assay contained 10 to 50 μg of cell homogenate protein in 0.5 ml of 0.1M potassium phosphate buffer (pH 6.6, rat enzyme; pH 7.0, human enzyme). Steroids were added in 5 μl ethanol, and the reaction was initiated by the addition of NADPH to a final concentration of 2-5 mM. Incubations were carried out for 10 min at 37° C. and terminated by the addition of 5 ml dichloromethane. Organic execrations and thin-layer chromatography analysis were as described above.
(§4) The apparent Km and Vmax values in this system were determined in vitro with five different steroid substrates (Table III).
(§5) The apparent Ki values were then determined for 4-aza-steroid (4-MA and MK-906) inhibition of 5α-reductases expressed in COS cells. […] The data obtained were analyzed using Dixon plots to determine the type of inhibition and the apparent Ki value (Dixon et al., 1979).
(§6) COS call transfaction, cell homogonate preparation, and enzyme assay were
(§7) carried out as described in Materials and Methods. Each Km value
(§8) represents the average of at least two experiments carried out on
(§9) different days using cell lysates prepared from different transfections.

The target in assay [2] is T2, human steroid 5α-reductase 1 (Homo sapiens, UniProt P18405).
T2 sequence (P18405 1-259): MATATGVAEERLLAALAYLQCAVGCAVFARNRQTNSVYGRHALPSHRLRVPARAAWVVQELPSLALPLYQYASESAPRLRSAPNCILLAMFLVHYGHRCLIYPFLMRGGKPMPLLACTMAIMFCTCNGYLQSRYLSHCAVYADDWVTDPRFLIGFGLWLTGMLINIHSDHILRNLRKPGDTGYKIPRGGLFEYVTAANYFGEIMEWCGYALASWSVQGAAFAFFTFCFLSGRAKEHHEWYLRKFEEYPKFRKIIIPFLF
Briefly: steroid 5α-reductase activity/inhibition in vitro, homogenates of COS cells expressing human steroid 5α-reductase 1 cDNA (Table III). Conditions: apparent Ki, human enzyme; two [14C]testosterone concentrations; Dixon plots.
From the text: as §1, §2, §3, §4, §5, §6, §7, §8, §9

In assay [3] the target is T3, human prostate 5α-reductase (prostate extract) (Homo sapiens, UniProt P31213).
T3 construct: Prostate tissue was obtained from subjects undergoing surgical treatment for benign prostatic hyperplasia; from tissue; host or cells: human prostate (benign prostatic hyperplasia), membrane extract
T3 sequence (P31213 1-254): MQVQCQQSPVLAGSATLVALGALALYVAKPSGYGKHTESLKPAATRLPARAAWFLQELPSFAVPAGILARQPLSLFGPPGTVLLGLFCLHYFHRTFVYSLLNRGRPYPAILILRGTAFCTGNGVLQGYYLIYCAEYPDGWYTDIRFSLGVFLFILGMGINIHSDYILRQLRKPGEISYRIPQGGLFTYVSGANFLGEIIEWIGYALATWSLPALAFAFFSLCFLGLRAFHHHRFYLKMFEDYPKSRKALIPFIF
Description: finasteride inhibition of 5α-reductase in human prostate extract. Type of assay: biochemical.

For assay [4], the target named is T4, human 5α-reductase 1 (Homo sapiens, UniProt P18405).
T4 construct: Human 5α-reductase 1 is 259 residues long; expressed in transfected cells; host or cells: human embryonic kidney 293 cells
T4 sequence (P18405 1-259): T2 sequence (P18405 1-259)
Briefly: finasteride inhibition of 5α-reductase 1 expressed in human embryonic kidney 293 cells (FIG. 15B). Type of assay: biochemical. On the procedure:
(§10) FIGS. 15A-15B. Characterization of expressed human 5α-reductase isozymes with regard to pH optima and finasteride inhibition. Expression plasmids containing the 5α-reductase 1 or 2 cDNAs (FIGS. 7 and 13, respectively) were transfected into human embryonic kidney 293 cells. […] Reductase enzyme activity obtained in extracts of transfected human embryonic kidney 293 cells in the absence of inhibitor was defined as 100%. In both panels, conversion into dihydrotestosterone was determined, after 10 minute incubations, by thin layer chromatography. Protein concentrations in cell extracts were measured as in Lowry, 1951.
(§11) Steroid 5α-Reductase Assay. […] Termination, organic extraction and TLC were performed as described in Example 1, using a chloroform-ethyl acetate (3:1, v/v) mobile phase in the TLC.
(§12) The properties of the two human steroid 5α-reductase isozymes were also compared directly, following expression in human embryonic kidney 293 cells.

For assay [5], the target named is T5, human 5α-reductase 2 (Homo sapiens, UniProt P31213).
T5 construct: predicted to be a hydrophobic polypeptide of 254 amino acids; expressed in transfected cells; host or cells: human embryonic kidney 293 cells, pCMV expression vector
T5 sequence (P31213 1-254 L89V): T3 sequence (P31213 1-254) with L89V
Briefly: finasteride inhibition of 5α-reductase 2 expressed in human embryonic kidney 293 cells (FIG. 15B). Type of assay: biochemical. On the procedure:
as §10, §11, §12

Assay [6] addresses T6, human 5α-reductase 2 (Homo sapiens, UniProt P31213, L89V).
T6 construct: predicted to be a hydrophobic polypeptide of 254 amino acids; expressed in transfected cells; host or cells: human embryonic kidney 293 cells, pCMV expression vector
T6 sequence (P31213 1-254 L89V): T3 sequence (P31213 1-254) with L89V
Described as above. Type of assay: biochemical. Conditions: 5α-reductase 2, 293 cells. On the procedure: as §10, §11, §12

Assay [7] has as its system prostate extract and steroid 5α-reductase 1. Briefly: finasteride inhibition of mixed aliquots of prostate extract and steroid 5α-reductase 1 extract. Type of assay: biochemical, human. Conditions: aliquots with equivalent 5α-reductase activity mixed.
The subject of assay [8] is steroid 5α-reductase. Conditions: Liang et al., 1985; cited from earlier work.
For assay [9], the system named is major human prostate 5α-reductase enzyme. Conditions: Liang et al., 1985; cited from earlier work.
For assay [10], the target named is T2, human steroid 5α-reductase 1. Description: finasteride inhibition of steroid 5α-reductase 1 expressed in COS cells (Example 6). Type of assay: biochemical. Details: Human 5α-reductase 1 is 259 residues long; expressed in transfected cells; host or cells: simian COS-M6 cells, pCMV4 vector.
The target of assay [11] is T1, rat steroid 5α-reductase. Description: steroid 5α-reductase assay in intact transfected COS cells, rat cDNA. Type of assay: cell-based. Conditions: rat enzyme expressed in COS cells; 37° C., 2 hr. On the set-up: the open reading frame would encode a hydrophobic protein of 255 amino acids; expressed in transfected cells; host or cells: simian COS-M6 cells, pCMV4 vector.
From the text: as §1, §2
COS cells were transiently transfected with expression vectors harboring the rat or human steroid 5α-reductase 1 cDNAs, or with the pCMV4 vector alone.
IC50 values for MK-906 and 4-MA inhibition of 5α-reductases expressed in COS cells were also determined. […] See Example 6 and FIG. 15, for further analysis of 4-aza-steroid inhibition.

The target of assay [12] is T1, rat steroid 5α-reductase. Details: the open reading frame would encode a hydrophobic protein of 255 amino acids; expressed in transfected cells; host or cells: simian COS-M6 cells, pCMV4 vector. Conditions: simian COS cells; Andersson & Russell, 1990; cited from earlier work.

Consider 1 compound from patent US5679521A, “Steroid 5A-reductases” (priority 1995, dated 1997).

Changes are numbered by the printed parent chain. Several values for one entry are separate records, joined by “and”; a condition that tells them apart may be missing. Equal entries are not always repeated.

The term IC50 denotes the concentration needed to halve the response being measured. Take `CC(C)(C)NC(=O)[C@H]1CC[C@H]2[C@@H]3CC[C@H]4NC(=O)C=C[C@]4(C)[C@H]3CC[C@]12C` [MK-906, 17β-N-t-butylcarbamoyl-4-aza-5α-androst-1-en-3-one]: the Ki in assay [1] was 3 to 5 nM and 3 nM and 4 nM and 5 nM; in [2] it was 340 to 620 nM and 340 nM and 380 nM and 620 nM; in assay [4] (5α-reductase 1, 293 cells), about 230 nM; in assay [6] it was about 5 nM. Moreover, the IC50 is 10 nM in [3], about 900 nM in [4], about 30 nM in [5] and 10000 nM in [10]. The “inhibition curve of mixed extracts” value in [7] is on record as “biphasic”. The type of inhibition entry is “competitive inhibitors” in [8] and “competitive inhibitor” in [9]. Moreover, the “IC50 inhibition, relative potency of MK-906 and 4-MA” value in [11] is recorded as “equipotent”. The “inhibition of rat steroid 5α-reductase” value in [12] is “inhibited”.
